The values below are quoted from earlier work in US10927398B2, “Compositions for CYP450 phenotyping using saliva samples” (Concordia University, Inc., priority 2015, dated 2021).

Read-outs that look alike come from different tables or passages of the source.

For one data set, the system named is plasma protein. Particulars: cited from earlier work.
The conditions of data set [1]: cited from earlier work.
Setting [2] is: Table of Exemplary Drugs, CYP3A4.
Setting [3] is: Table of Exemplary Drugs, CYP2C19.
The mark [4] stands for this setting: Table of Exemplary Drugs, CYP2D6.
Setting [5] is: Table of Exemplary Drugs, CYP2C9.

As to `CC(C)(C)NC(=O)[C@@H]1C[C@@H]2CCCC[C@@H]2CN1C[C@@H](O)[C@H](Cc1ccccc1)NC(=O)[C@H](CC(N)=O)NC(=O)c1ccc2ccccc2n1` [Saquinavir (Invirase), Saquinavir], the “PLASMA PROTEIN BINDING” value in the data set with plasma protein (setting [2]) is reported as 98%. For the same compound, the “HALF-LIFE” value in data set [1] (setting [2]) was 13 h. As for `[H]/N=C(\N/C(=N/[H])Nc1ccc(Cl)cc1)NC(C)C` [Proguanil], the “PLASMA PROTEIN BINDING” value with plasma protein (setting [3]) is reported as 75%. Moreover, the “HALF-LIFE” value in data set [1] (setting [3]) was 12 to 18 h.

Regarding `O=c1[nH]c2ccccc2n1C1CCN(CCCC(c2ccc(F)cc2)c2ccc(F)cc2)CC1` [Pimozide (Orap), Pimozide], the “HALF-LIFE” value in data set [1] (setting [2]) was 55 h. Take `NS(=O)(=O)Cc1noc2ccccc12` [Zonisamide (Zonegran), Zonisamide]: the “PLASMA PROTEIN BINDING” value with plasma protein (setting [2]) is given as 40-60% ^. Turning to `O=C(CCCN1CC=C(n2c(=O)[nH]c3ccccc32)CC1)c1ccc(F)cc1` [Droperidol], the “HALF-LIFE” value in data set [1] (setting [2]) is 2 h. Take `CSc1ccc2c(c1)N(CCC1CCCCN1C)c1ccccc1S2` (stereo not shown) [Thioridazine]: in data set [1] (setting [4]), the “HALF-LIFE” value was 21 to 24 h.

Consider `Cc1cc(-c2ccccc2)nnc1NCCN1CCOCC1` [Minaprine], for which, in data set [1] (setting [4]), the “HALF-LIFE” value is 2 to 2.5 h. Take `CC(C)c1nc(CN(C)C(=O)N[C@H](C(=O)N[C@@H](Cc2ccccc2)C[C@H](O)[C@H](Cc2ccccc2)NC(=O)OCc2cncs2)C(C)C)cs1` [Ritonavir (Norvir), Ritonavir]: the “HALF-LIFE” value in data set [1] (setting [2]) is 3 to 5 h. As to `C[C@@H]1C[C@H]2[C@@H]3CCC4=CC(=O)C=C[C@]4(C)[C@@]3(F)[C@@H](O)C[C@]2(C)[C@@]1(O)C(=O)CO` [Dexmethasone (Decadron), Dexmethasone], the “PLASMA PROTEIN BINDING” value in the data set with plasma protein (plasma) is 77%. As to `CCC(C)n1ncn(-c2ccc(N3CCN(c4ccc(OCC5COC(Cn6cncn6)(c6ccc(Cl)cc6Cl)O5)cc4)CC3)cc2)c1=O` (stereo not shown) [Itraconazole (Sporanox), Itraconazole], the “HALF-LIFE” value in data set [1] (setting [2]) was 35 to 64 h. Take `CC[C@]1(O)C[C@H]2CN(CCc3c([nH]c4ccccc34)[C@@](C(=O)OC)(c3cc4c(cc3OC)N(C=O)[C@H]3[C@@](O)(C(=O)OC)[C@H](OC(C)=O)[C@]5(CC)C=CCN6CC[C@]43[C@@H]65)C2)C1` [Vincristine (Oncovin), Vincristine]: the “HALF-LIFE” value in data set [1] (setting [2]) is 85 h. Take `Cc1ccc(-c2nc3ccc(C)cn3c2CC(=O)N(C)C)cc1` [Zolpidem (Ambien), Zolpidem]: the “HALF-LIFE” value in data set [1] (in vivo) is 2.5 to 2.8 h. As to `CN1CCN(C(=O)O[C@H]2c3nccnc3C(=O)N2c2ccc(Cl)cn2)CC1` [Eszopiclone (Lunesta), Eszopiclone], the “PLASMA PROTEIN BINDING” value in the data set on plasma protein (setting [2]) is listed as 52-59% ^. As to `C=C(C)[C@H]1CC=C(C)CC1` [Limonene], the “HALF-LIFE” value in data set [1] (setting [3]) was 12 to 24 h. As for `Cc1nc2n(c(=O)c1CCN1CCC(c3noc4cc(F)ccc34)CC1)CCCC2` [Risperidone], the “HALF-LIFE” value in data set [1] (setting [4]) was 3 to 20 h.

With `CCCC(C)(COC(N)=O)COC(=O)NC(C)C` (stereo not shown) [Carisoprodol], the “PLASMA PROTEIN BINDING” value in the data set with plasma protein (plasma) is given as 60%. `COCCCC/C(=N\OCCN)c1ccc(C(F)(F)F)cc1` [Fluvoxamine]: the “HALF-LIFE” value was around 14 to 16 h in data set [1] (Table of Exemplary Drugs, CYP1A2) and 15.6 h in data set [1] (setting [4]). Regarding `CN1C(=O)NC(=O)C(C)(C2=CCCCC2)C1=O` (stereo not shown) [Hexobarbital], the “PLASMA PROTEIN BINDING” value in the data set on plasma protein (setting [3]) is on record as 25%. As to `CN(CCOc1ccc(CC2SC(=O)NC2=O)cc1)c1ccccn1` (stereo not shown) [Rosiglitazone], the “HALF-LIFE” value in data set [1] (setting [5]) is 3 to 4 h. In the case of `CN(C)C[C@H]1CCCC[C@]1(O)c1cccc(O)c1` [O-desmethyltramadol], the “HALF-LIFE” value in data set [1] (setting [4]) is 9 h.

With `CCCCNC(=O)NS(=O)(=O)c1ccc(C)cc1` [Tolbutamide], the “HALF-LIFE” value in data set [1] (setting [5]) was 4.5 to 6.5 h. On to `CN[C@@H](C)Cc1ccccc1` [Dextromethamphetamine], for which the “HALF-LIFE” value in data set [1] (setting [4]) is 12 h. As for `C1CCC(C(CC2CCCCN2)C2CCCCC2)CC1` (stereo not shown) [Perhexiline], the “HALF-LIFE” value in data set [1] (setting [4]) is 12 to 18 h. `CN(C)CCC(c1ccc(Cl)cc1)c1ccccn1` (stereo not shown) [Chlorphenamine]: in the data set on plasma protein (setting [4]), the “PLASMA PROTEIN BINDING” value is listed as 72%. Regarding `COc1ccc(Cl)cc1C(=O)NCCc1ccc(S(=O)(=O)NC(=O)NC2CCCCC2)cc1` [Glibenclamide], the “PLASMA PROTEIN BINDING” value in the data set on plasma protein (setting [5]) is reported as 99%.
